Measured values: the supplement of paper PMC13380429

Key:
Conditions in all cases: 72 h
[1] = tested on: Caco-2; assay: cell viability relative to DMSO; higher = less toxic
[2] = tested on: Calu-3; assay: as above
[3] = tested on: HepG2; assay: as above
[4] = tested on: U2OS; assay: as above
[5] = tested on: Vero E6; assay: as above
[6] = tested on: Caco-2; assay: relative viability EC50 (midpoint between 100% and the lowest measured viability); higher = less toxic
[7] = tested on: Calu-3; assay: as above
[8] = tested on: HepG2; assay: as above
[9] = tested on: U2OS; assay: as above
[10] = tested on: Vero E6; assay: as above
[11] = tested on: Caco-2; assay: drug sensitivity score (DSS) for viability; higher = more toxic; extreme values may be limits of the assay
[12] = tested on: Calu-3; assay: as above
[13] = tested on: HepG2; assay: as above
[14] = tested on: U2OS; assay: as above
[15] = tested on: Vero E6; assay: as above

| SMILES | cell viability ([1]; 1 nM) [%] | cell viability ([1]; 10 nM) [%] | cell viability ([1]; 100 nM) [%] | cell viability ([1]; 1000 nM) [%] | cell viability ([1]; 10000 nM) [%] | cell viability ([2]; 1 nM) [%] | cell viability ([2]; 10 nM) [%] | cell viability ([2]; 100 nM) [%] | cell viability ([2]; 1000 nM) [%] | cell viability ([2]; 10000 nM) [%] | cell viability ([3]; 1 nM) [%] | cell viability ([3]; 10 nM) [%] | cell viability ([3]; 100 nM) [%] | cell viability ([3]; 1000 nM) [%] | cell viability ([3]; 10000 nM) [%] | cell viability ([4]; 1 nM) [%] | cell viability ([4]; 10 nM) [%] | cell viability ([4]; 100 nM) [%] | cell viability ([4]; 1000 nM) [%] | cell viability ([4]; 10000 nM) [%] | cell viability ([5]; 1 nM) [%] | cell viability ([5]; 10 nM) [%] | cell viability ([5]; 100 nM) [%] | cell viability ([5]; 1000 nM) [%] | cell viability ([5]; 10000 nM) [%] | relative viability EC50 [6] [µM] | relative viability EC50 [7] [µM] | relative viability EC50 [8] [µM] | relative viability EC50 [9] [µM] | relative viability EC50 [10] [µM] | drug sensitivity score [11] | drug sensitivity score [12] | drug sensitivity score [13] | drug sensitivity score [14] | drug sensitivity score [15] |
| --- | --- | --- | --- | --- | --- | --- | --- | --- | --- | --- | --- | --- | --- | --- | --- | --- | --- | --- | --- | --- | --- | --- | --- | --- | --- | --- | --- | --- | --- | --- | --- | --- | --- | --- | --- |
| Oc1c(Cl)cc(Cl)cc1Sc1cc(Cl)cc(Cl)c1O [bithionol] | 104 | 88.5 | 99 | 86 | 89.2 | 92.6 | 95.7 | 102 | 97.3 | 111 | 101 | 89.3 | 93 | 83.1 | 86.3 | 103 | 93.8 | 104 | 98.6 | 104 | 97.3 | 107 | 89.9 | 94.8 | 96.4 | > 10 | > 10 | > 10 | > 10 | > 10 | 0.4 | 0 | 1.7 | 0 | 0 |
| Cc1cc2c(OCC(CNC(C)(C)C)OC(=O)c3ccccc3)cccc2[nH]1 (stereo not given) [bopindolol] | 93.7 | 102 | 95.4 | 102 | 91.7 | 101 | 102 | 108 | 103 | 92 | 94 | 100 | 101 | 96.8 | 95.8 | 92.7 | 101 | 93 | 110 | 90.4 | 101 | 91.6 | 95.9 | 98.5 | 98.1 | > 10 | > 10 | > 10 | > 10 | > 10 | 0 | 0 | 0 | 0 | 0 |
| CC(=O)OCC1=C(C(=O)O)N2C(=O)[C@@H](NC(=O)CS/C(=N/C(C)C)NC(C)C)[C@H]2SC1 [cefathiamidine] | 97.9 | 96.5 | 113 | 107 | 96.6 | 97.3 | 107 | 107 | 108 | 102 | 94.6 | 89.3 | 96.8 | 98.1 | 105 | 94.3 | 94.3 | 97.9 | 98.8 | 102 | 99.7 | 101 | 95.1 | 102 | 109 | > 10 | > 10 | > 10 | > 10 | > 10 | 0 | 0 | 0 | 0 | 0 |
| Oc1c(Cl)cc(Cl)c2cccnc12 [chloroxine] | 98.9 | 102 | 96.6 | 91.4 | 85.3 | 93.9 | 103 | 91.9 | 100 | 84.2 | 75.3 | 89.9 | 92.2 | 91.6 | 76 | 102 | 103 | 96.7 | 101 | 94.4 | 100 | 105 | 96.9 | 93.5 | 96.7 | > 10 | > 10 | > 10 | > 10 | > 10 | 0.5 | 0.3 | 0 | 0 | 0 |
| COc1ccc(/C=C\c2cc(OC)c(OC)c(OC)c2)cc1O [combretastatin-A-4] | 93.5 | 76.9 | 52.8 | 40.3 | 43.9 | 100 | 107 | 85.8 | 47.2 | 34.5 | 99.6 | 99.8 | 45.2 | 37.9 | 37.3 | 94.5 | 47.4 | 22.3 | 23.6 | 22.2 | 97.1 | 63.9 | 22.5 | 22.8 | 25.1 | 0.0175 | 0.303 | 0.0466 | 0.006 | 0.0107 | 19.1 | 11.5 | 18.3 | 30.8 | 28.4 |
| Cc1cccc(Cc2c[nH]cn2)c1C [detomidine] | 94.2 | 94 | 97.5 | 86.7 | 96.1 | 99.7 | 93 | 102 | 103 | 102 | 99.4 | 101 | 104 | 113 | 113 | 101 | 98.2 | 103 | 96.5 | 101 | 91 | 101 | 90.5 | 102 | 106 | > 10 | > 10 | > 10 | > 10 | > 10 | 0 | 0 | 0 | 0 | 0 |
| N#CC(c1ccc(Cl)cc1)c1c(Cl)cc(-n2ncc(=O)[nH]c2=O)cc1Cl (stereo not given) [diclazuril] | 100 | 93.7 | 107 | 86.3 | 110 | 98 | 84.7 | 94.2 | 92.9 | 107 | 101 | 102 | 121 | 110 | 91 | 98.6 | 98.5 | 95.7 | 94.8 | 100 | 99.4 | 100 | 92.2 | 95.8 | 109 | > 10 | > 10 | > 10 | > 10 | > 10 | 0 | 0 | 0 | 0 | 0 |
| C1CCC(NC2CCCCC2)CC1 [dicyclohexylamine] | 98.7 | 104 | 94.6 | 106 | 94.1 | 96.6 | 99 | 87.8 | 97.8 | 98 | 99 | 104 | 97.5 | 111 | 104 | 99.2 | 99.5 | 99.4 | 104 | 97.7 | 99.1 | 96.3 | 97.3 | 100 | 97.5 | > 10 | > 10 | > 10 | > 10 | > 10 | 0 | 0 | 0 | 0 | 0 |
| COc1ccc(-c2cc(=O)c3c(O)cc(O)cc3o2)cc1O [diosmetin] | 95.9 | 91.6 | 101 | 96.6 | 86.3 | 93.2 | 104 | 91.5 | 93.7 | 78.3 | 97.7 | 109 | 94.6 | 120 | 86.7 | 94.2 | 93.1 | 101 | 96.2 | 90.2 | 95.2 | 96.8 | 91 | 101 | 113 | > 10 | > 10 | > 10 | > 10 | > 10 | 0.4 | 1 | 0 | 0 | 0 |
| CCCCCCCCCCCC1=C(O)C(=O)C=C(O)C1=O [embelin] | 98.2 | 97.2 | 98.5 | 104 | 92.2 | 106 | 98.6 | 110 | 96.2 | 104 | 95.9 | 94.4 | 98.9 | 98.6 | 102 | 107 | 95.1 | 101 | 94.7 | 95.3 | 92.1 | 94.3 | 97.8 | 105 | 97 | > 10 | > 10 | > 10 | > 10 | > 10 | 0 | 0 | 0 | 0 | 0 |
| CC1(C)[C@@H](O)CC[C@]2(C)[C@H]3C(=O)C=C4[C@@H]5C[C@@](C)(C(=O)O)CC[C@]5(C)CC[C@@]4(C)[C@]3(C)CC[C@@H]12 [enoxolone] | 96.6 | 101 | 97 | 87.2 | 96.3 | 110 | 106 | 98.6 | 105 | 99.1 | 75.2 | 90.9 | 87 | 95.9 | 96 | 99.4 | 93.2 | 95.4 | 99.6 | 98.6 | 93.1 | 99.8 | 95.2 | 103 | 92.5 | > 10 | > 10 | > 10 | > 10 | > 10 | 0 | 0 | 0 | 0 | 0 |
| CCOC(=O)c1cnc2c(cnn2CC)c1NN=C(C)C [etazolate] | 100 | 96.7 | 102 | 99.6 | 92.9 | 102 | 101 | 96.2 | 94.3 | 90.9 | 94.4 | 93 | 96.6 | 106 | 88.4 | 101 | 94.7 | 97.1 | 96.6 | 97.7 | 96.9 | 93.5 | 96.5 | 98.9 | 85.1 | > 10 | > 10 | > 10 | > 10 | > 10 | 0 | 0 | 0 | 0 | 0.3 |
| CCOc1cc(C=O)ccc1O [ethyl-vanillin] | 99.3 | 92.5 | 98.5 | 78.4 | 101 | 98.6 | 108 | 102 | 97.5 | 99.3 | 117 | 99.5 | 96.2 | 103 | 97.1 | 97.4 | 102 | 96.2 | 101 | 99.9 | 106 | 92.8 | 107 | 95.1 | 91.6 | > 10 | > 10 | > 10 | > 10 | > 10 | 0 | 0 | 0 | 0 | 0 |
| CCc1cc2c(s1)-n1c(C)nnc1CN=C2c1ccccc1Cl [etizolam] | 102 | 103 | 96.4 | 94.3 | 99.2 | 101 | 93.2 | 105 | 96.4 | 105 | 104 | 106 | 106 | 93.1 | 108 | 98.6 | 102 | 98.8 | 97.3 | 96.5 | 104 | 106 | 105 | 99.8 | 99.6 | > 10 | > 10 | > 10 | > 10 | > 10 | 0 | 0 | 0 | 0 | 0 |
